In one data set the target is T1, m2 receptor (Homo sapiens, UniProt P08172).
T1 construct: expressed in transfected cells; host or cells: CHO cells (membranes)
T1 sequence (P08172 1-466): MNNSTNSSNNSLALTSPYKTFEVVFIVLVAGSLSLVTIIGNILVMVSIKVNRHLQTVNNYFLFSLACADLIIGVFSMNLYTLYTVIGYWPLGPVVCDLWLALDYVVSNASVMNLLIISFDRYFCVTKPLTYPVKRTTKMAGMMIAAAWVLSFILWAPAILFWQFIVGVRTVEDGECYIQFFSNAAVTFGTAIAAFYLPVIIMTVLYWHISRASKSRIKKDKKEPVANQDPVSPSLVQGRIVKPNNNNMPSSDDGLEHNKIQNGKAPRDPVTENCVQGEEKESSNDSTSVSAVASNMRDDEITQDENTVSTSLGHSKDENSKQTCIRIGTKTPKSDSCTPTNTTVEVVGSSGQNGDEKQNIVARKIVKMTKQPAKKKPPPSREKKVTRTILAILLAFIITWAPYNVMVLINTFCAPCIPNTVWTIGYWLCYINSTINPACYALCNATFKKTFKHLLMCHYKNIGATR
As to the kind of experiment: [3H]-NMS receptor binding using membranes from CHO cells expressing cloned human muscarinic receptor m2. As to conditions: [3H]-NMS 100 pM, pH 7.4, 120 minutes at 25° C.

The target in the next data set is T2, m5 receptor (Homo sapiens, UniProt P08912).
T2 construct: expressed in transfected cells; host or cells: CHO cells (membranes)
T2 sequence (P08912 1-532): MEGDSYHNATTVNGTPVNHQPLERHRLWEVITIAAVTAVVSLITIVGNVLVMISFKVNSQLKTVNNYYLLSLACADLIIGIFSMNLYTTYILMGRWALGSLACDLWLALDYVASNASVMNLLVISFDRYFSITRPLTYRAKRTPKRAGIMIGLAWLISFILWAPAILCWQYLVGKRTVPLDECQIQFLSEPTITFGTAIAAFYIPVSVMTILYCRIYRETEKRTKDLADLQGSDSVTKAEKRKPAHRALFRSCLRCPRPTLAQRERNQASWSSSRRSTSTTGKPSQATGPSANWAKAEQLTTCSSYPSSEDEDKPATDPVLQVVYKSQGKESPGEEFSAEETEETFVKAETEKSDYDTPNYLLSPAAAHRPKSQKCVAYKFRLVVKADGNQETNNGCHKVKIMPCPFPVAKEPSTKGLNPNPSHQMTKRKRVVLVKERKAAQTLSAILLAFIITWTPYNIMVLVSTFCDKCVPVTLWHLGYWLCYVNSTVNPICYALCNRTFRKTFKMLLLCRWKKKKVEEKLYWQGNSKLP
As to the kind of experiment: [3H]-NMS receptor binding using membranes from CHO cells expressing cloned human muscarinic receptor m5. The note with it: [3H]-NMS 100 pM, pH 7.4, 120 minutes at 25° C.

For another data set, the target named is m3 receptor (Homo sapiens, UniProt P20309). Nature of the data set: [3H]-NMS receptor binding using membranes from CHO cells expressing cloned human muscarinic receptor m3. The note with it: [3H]-NMS 100 pM, pH 7.4, 120 minutes at 25° C.
The target of another data set is T3, m4 receptor (Homo sapiens, UniProt P08173).
T3 construct: expressed in transfected cells; host or cells: CHO cells (membranes)
T3 sequence (P08173 1-479): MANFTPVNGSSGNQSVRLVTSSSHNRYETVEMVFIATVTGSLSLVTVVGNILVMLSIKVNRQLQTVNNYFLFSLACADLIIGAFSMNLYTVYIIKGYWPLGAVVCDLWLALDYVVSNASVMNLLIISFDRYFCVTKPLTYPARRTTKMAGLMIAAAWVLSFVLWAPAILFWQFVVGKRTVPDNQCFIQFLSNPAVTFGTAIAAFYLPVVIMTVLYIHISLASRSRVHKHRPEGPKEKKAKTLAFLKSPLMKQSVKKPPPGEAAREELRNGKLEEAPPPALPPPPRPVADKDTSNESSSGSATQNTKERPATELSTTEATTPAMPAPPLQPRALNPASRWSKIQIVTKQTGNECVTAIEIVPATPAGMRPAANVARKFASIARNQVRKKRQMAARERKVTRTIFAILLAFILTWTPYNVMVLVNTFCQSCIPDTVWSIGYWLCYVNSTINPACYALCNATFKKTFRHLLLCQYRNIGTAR
As to the kind of experiment: [3H]-NMS receptor binding using membranes from CHO cells expressing cloned human muscarinic receptor m4. The note with it: [3H]-NMS 100 pM, pH 7.4, 120 minutes at 25° C.

The next data set has as its target T4, m1 receptor (Homo sapiens, UniProt P11229).
T4 construct: expressed in transfected cells; host or cells: CHO cells (membranes)
T4 sequence (P11229 1-460): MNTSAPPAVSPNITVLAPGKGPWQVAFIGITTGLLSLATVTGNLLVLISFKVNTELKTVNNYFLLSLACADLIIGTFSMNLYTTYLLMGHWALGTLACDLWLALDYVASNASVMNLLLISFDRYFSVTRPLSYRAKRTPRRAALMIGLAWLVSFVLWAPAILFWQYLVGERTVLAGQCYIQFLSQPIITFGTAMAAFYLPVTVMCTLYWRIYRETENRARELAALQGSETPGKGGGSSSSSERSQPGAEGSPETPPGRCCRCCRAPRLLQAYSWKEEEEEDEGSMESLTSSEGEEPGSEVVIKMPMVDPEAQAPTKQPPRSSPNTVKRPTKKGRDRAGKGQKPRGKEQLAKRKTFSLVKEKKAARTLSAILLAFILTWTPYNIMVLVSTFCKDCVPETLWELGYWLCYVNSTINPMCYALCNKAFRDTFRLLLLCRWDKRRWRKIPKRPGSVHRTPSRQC
As to the kind of experiment: [3H]-NMS receptor binding using membranes from CHO cells expressing cloned human muscarinic receptor m1. As to conditions: [3H]-NMS 100 pM, pH 7.4, 120 minutes at 25° C.

The next data set concerns the target T5, Hm1 (Homo sapiens, UniProt P11229).
T5 construct: expressed in transfected cells; host or cells: CHO Hm1 cells
T5 sequence (P11229 1-460): T4 sequence (P11229 1-460)
In kind it is cell-based.

For data set [1], the system named is patients with effort myocardial ischemia. As to conditions: cited from earlier work.
Another data set deals with M3 receptors. The note with it: literature; cited from earlier work.
A further data set deals with M2 receptors. As to conditions: literature; cited from earlier work.
For data set [2] the following is noted: urinary incontinence; cited from earlier work.

Here are results for twelve molecules from patent US5446057A, “Substituted tetrahydropyridine and piperidine carboxylic acids as muscarinic antagonists” (priority 1993, dated 1995).

As usually defined, the IC50 is the concentration that inhibits the measured activity by half.

m3 receptor, sequence (P20309 whole entry): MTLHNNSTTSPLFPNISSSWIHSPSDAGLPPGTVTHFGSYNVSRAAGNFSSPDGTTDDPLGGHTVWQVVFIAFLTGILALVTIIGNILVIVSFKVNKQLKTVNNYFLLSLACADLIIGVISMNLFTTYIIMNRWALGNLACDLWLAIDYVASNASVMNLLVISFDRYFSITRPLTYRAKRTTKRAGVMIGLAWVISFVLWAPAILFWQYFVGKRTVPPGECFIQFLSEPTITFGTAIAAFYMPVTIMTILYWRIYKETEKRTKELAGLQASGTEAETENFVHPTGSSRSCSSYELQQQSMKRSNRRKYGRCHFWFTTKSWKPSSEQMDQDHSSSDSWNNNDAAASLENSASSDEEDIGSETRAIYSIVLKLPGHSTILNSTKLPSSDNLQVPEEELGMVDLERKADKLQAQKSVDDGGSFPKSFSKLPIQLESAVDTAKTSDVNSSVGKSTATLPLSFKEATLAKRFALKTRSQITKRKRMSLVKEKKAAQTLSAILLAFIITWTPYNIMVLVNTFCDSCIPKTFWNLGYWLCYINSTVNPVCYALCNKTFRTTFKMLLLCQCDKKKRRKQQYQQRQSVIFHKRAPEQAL
Experimental for Hm1: CHO Hm1, Hm3, or Hm5 cells are grown at 37° C. with 5% CO2 in Dulbecco's modified Eagle's medium (DMEM) supplemented with 10% fetal bovine serum and 1% nonessential amino acids. […] After 48 hours, the medium is aspirated and the cells are washed 2 times with 1 mL MEM containing 10 mM LiCl. 0.5 mLMEM/LiCl then is added to each well and allowed to incubate at 37° C. for at least 15 minutes. […] For antagonist experiments, the appropriate antagonist is added simultaneously with carbachol (3 μM for m1, 5 μM for m3, and 3 μM for m5). After waiting at least 15 minutes, the TCA extract is applied to Dowex-formate columns (Biorad AG 1-X8 resin, formate form, 100-200 mesh). The wells are rinsed with 0.5 mL distilled H2 O and also applied to the columns. The columns are washed 4 times with 3 mL 5 mMmyo-inositol and then total [^3 H]-inositol phosphates are eluted into vials with two 2 mL washes of 1 mM ammonium formate containing 0.1M formic acid. Beckman Ready Gel scintillation cocktail (10 mL) is added and the samples counted in a Beckman 2800 scintillation counter. The efficacy of agonists is estimated from the maximal effect of the compounds on PI turnover (expressed as a percent of the stimulation produced by carbachol (1 mM)). EC50 and IC50 values are also calculated for both agonists and antagonists, respectively.
Experimental for m1 receptor: (§1) [^3 H]-N-methylscopolamine ([^3 H]-NMS) Receptor Binding Using Membranes From Chinese Hamster Ovary (CHO) Cells Selectively Expressing One of the Five Cloned Human Muscarinic Receptors
(§2) Following membrane harvest and storage at -80° C., aliquots of membranes (approximately 10-40 μg protein) are added to 2 mL of 10 mM sodium potassium phosphate buffer, pH 7.4, containing 100 pM [^3 H]-NMS; (78.9 Ci/mmol) and the appropriate test compound. Nonspecific binding is defined as that unaffected by the inclusion of 1 μM atropine. The reaction is initiated by the addition of the membranes and allowed to proceed for 120 minutes at 25° C. with shaking. Termination of the incubation is achieved by rapid vacuum filtration through GF/B Whatman filters using a Brandel Cell Harvester with the filters being washed three times with 5 mL ice-chilled buffer. 10 mL of Beckman Ready Gel scintillation cocktail are added to the filters in vials and the samples are allowed to set overnight before vortexing and counting in a Beckman 800 scintillation counter. IC50 values are calculated using a logit equation.
Experimental for m4 receptor: as §1, §2
Experimental for m5 receptor: as §1, §2

On to `CCN1CCC(c2ccccc2)=C(C(=O)N(C)C)C1` [C, 1-Ethyl-1,2,5,6-tetrahydro-4-phenyl-N,N-dimethyl-3-pyridinecarboxamide], for which the IC50 stood at 12.3 µM on m2 receptor; 6.08 µM on m5 receptor; 8.99 µM on m3 receptor; 13.5 µM on m4 receptor; 5.01 µM at m1 receptor. On Hm1, the “muscarinic antagonism (in words)” value is “potent antagonists”.

For `CCCCC1=C(C(=O)OC)CN(CCC)CC1` [F, 1-Propyl-1,2,5,6-tetrahydro-4-butyl-3-pyridinecarboxylic acid, methyl ester], the IC50 at m2 receptor was 5.34 µM; at m5 receptor, 41.2 µM; at m3 receptor, 14.9 µM; on m4 receptor it was 50.7 µM; at m1 receptor, 17.5 µM.

On to `CN1CCN(CC(=O)N2c3ccccc3C(=O)Nc3cccnc32)CC1` [pirenzepine], for which, in [1], the exercise tolerance entry is recorded as “improve exercise tolerance”.

Take `C[N+]1(C)CCC(OC(=O)C(c2ccccc2)c2ccccc2)CC1` [Example 4-DAMP, 4-diphenylacetoxy-N-methylpiperidine methobromide]: the “affinity for M3 receptors” value in the data set on M3 receptors was “high affinity”.

For the molecule `COc1ccccc1CNCCCCCCNCCCCCCCCNCCCCCCNCc1ccccc1OC` [methoctramine], the “affinity for M2 receptors” value with M2 receptors is given as “high affinity”.

On to `CCN1CC=C(c2ccccc2)C(C(=O)OCCc2ccc(Cl)cc2)C1` (stereo not shown) [Example 16, 1-Ethyl-1,2,3,6-tetrahydro-4-phenyl-3-pyridinecarboxylic acid, 2-(4-chlorophenyl)ethyl ester], for which the IC50 at m2 receptor came to 1.29 µM; at m4 receptor, 1.85 µM.

On to `CCN1CCC(c2ccccc2)=C(C(=O)NC)C1` [D, 1-Ethyl-1,2,5,6-tetrahydro-4-phenyl-N-methyl-3-pyridinecarboxamide], for which the half-maximal inhibitory concentration (IC50) at m2 receptor amounted to 34.8 µM; on m5 receptor, 49.1 µM; on m3 receptor it was 38.7 µM; at m4 receptor, 73.1 µM; on m1 receptor it was 21.1 µM.

Turning to `O[Si](CCCN1CCCCC1)(c1ccccc1)C1CCCCC1` (stereo not shown) [hexahydrosiladifenidol], the “affinity for M3 receptors” value in the data set on M3 receptors is “high affinity”.

Take `COC(=O)C1=C(C)CCN(C)C1` [E, 1,4-Dimethyl-1,2,5,6-tetrahydro-3-pyridinecarboxylic acid, methyl ester]: the 50% inhibitory concentration (IC50) at m2 receptor was 10.4 µM; at m5 receptor, 73.8 µM; at m3 receptor, 68 µM; on m4 receptor it was more than 50 µM; on m1 receptor, 61 µM.

Consider `CCN(CC)CC1CCCCN1CC(=O)N1c2ccccc2C(=O)Nc2cccnc21` (stereo not shown) [AF-DX 116], for which the “affinity for M2 receptors” value in the data set on M2 receptors is listed as “high affinity”.

For the molecule `CCN(CC)CC#CCOC(=O)C(O)(c1ccccc1)C1CCCCC1` (stereo not shown) [oxybutynin], the “side effects limiting use” value in data set [2] is on record as “mydriasis, dry mouth”.

Regarding `CCN1CCC(c2ccccc2)=C(C(=O)OC(C)C)C1` [Example 4, 1-Ethyl-1,2,5,6-tetrahydro-4-phenyl-3-pyridinecarboxylic acid, 1-methylethyl ester], the IC50 on m2 receptor was 0.347 µM; on m4 receptor it was 0.643 µM.
